Data set [1] deals with Human oral squamous carcinoma HEp-2. The data set can be described thus: MTT cell proliferation assay, HEp-2 cells. Type of data set: cell-based. The conditions noted are these: for IC50: Homo sapiens, 72 h treatment, MTT, read-out: IC50, reduction in proliferation. The method, then:
(§1) Antiproliferative Activity, Materials and methods: Human oral squamous carcinoma HEp-2 and human mammary adenocarcinoma (MCF-7) cell lines were obtained from National Centre for Cell Science, Pune, India. Cells were maintained as a monolayer in nutrient media MEM supplemented with heat inactivated fetal bovine serum (HyClone, Utah, USA) (10%), penicillin (100 U/ml) and streptomycin (100 μg/ml) (Invitrogen Life Technologies, MD, USA). The cells were grown at 37° C. in 5% CO2 and humidified air atmosphere. Stock solutions of all the compounds were prepared in DMSO at a concentration of 10-11.5 mM and afterwards diluted to the required concentration. The 3-(4,5-dimethylthiazol-2-yl)-2,5-diphenyltetrazolium bromide (MTT) was dissolved (1 mg/ml) in MEM (without phenol red) and filtered through a Millipore filter, 0.22 μm, before use. MTT Cell Proliferation Assay: (HEp-2) and (MCF-7) cells were plated at a density of 15,000 cells per well in 96 well tissue culture plates. Cells were allowed to adhere for 24 h at 37° C. and then treated with various concentrations (0, 0.1, 1.0, and 10 μM) of compounds dissolved in DMSO for additional 72 h, in triplicates. In the control wells nutrient medium with correspondent concentration of DMSO only was added to the cells. Thereafter cell proliferation was assessed by replacing treatment medium with 50 μL media containing 1 mg/mL MTT and incubated for 4 h at 37° C. Medium was then aspirated off and formazan crystals were solubilized in […] of isopropanol. The optical density was read on a microplate reader at 570 nm using 630 nm as a reference filter against a blank prepared from cell free wells. Absorbance given by cells treated with the carrier DMSO alone was taken as 100% cell growth. All assays were performed in triplicates. Antiproliferative Activity. The antiproliferative activity of both the compounds 2 and 3 were tested against human cancer cells, HEp-2 and MCF-7 which were grown in vitro. Compound (2) up to a concentration of 10 μM had no effect on the survival of HEp-2 and MCF-7 cells. […] IC50 value for compound (2) was between 2-3 μM.
On the technique in general: Formazan colour is commonly taken as a measure of viable cells.

Data set [2] concerns human mammary adenocarcinoma (MCF-7). The data set can be described thus: MTT cell proliferation assay, MCF-7 cells. Type of data set: cell-based. The conditions noted are these: for IC50: Homo sapiens, MCF7, 72 h treatment, MTT, read-out: IC50, reduction in proliferation. On the procedure:
as §1

As usually defined, the melting point is the temperature, or range, at which the solid turns liquid. Molecule `C[C@H](CCC(=O)NCCNC(=O)CC[C@@H](C)[C@H]1CCC2C3C(C[C@H](O)[C@@]21C)[C@@]1(C)CC[C@@H](O)CC1C[C@H]3O)[C@H]1CCC2C3C(C[C@H](O)[C@@]21C)[C@@]1(C)CC[C@@H](O)CC1C[C@H]3O` (stereo partly drawn) [Compound 2, N^1,N^2-Ethylenediamine bis [cholic acid amide]] gave a melting point of 205 °C. Also, the IC50 in data set [1] lay in the range of 2 to 3 µM. In addition, the “effect on survival of cells” value in data set [1] (up to a concentration of 10 μM) is given as “no effect”. The IC50 in data set [2] was 2 to 3 µM. The “effect on survival of cells” value in data set [2] (up to a concentration of 10 μM) is “no effect”.

`C[C@H](CCC(=O)NCCNC(=O)CC[C@@H](C)[C@H]1CCC2C3CCC4C[C@H](O)CC[C@]4(C)C3C[C@H](O)[C@@]21C)[C@H]1CCC2C3CCC4C[C@H](O)CC[C@]4(C)C3C[C@H](O)[C@@]21C` (stereo partly drawn) [Compound 3, N^1,N^2-Ethylenediamine bis [deoxycholic acid amide]] yielded a melting point of 170 °C. Further, the reduction in proliferation result in data set [1] (0.1-10 μM, 72 h) is “significant reduction”. Also, the IC50 in data set [1] lay in the range of 2 to 4 µM. For the same molecule, the “growth inhibition at 10 μM” value in data set [1] (at 10 μM concentration, 72 h) is “totally inhibited”. Also, in data set [2] (0.1-10 μM, 72 h), the reduction in proliferation result was “significant reduction”. In data set [2], the IC50 is 2 to 4 µM. For the same molecule, the “growth inhibition at 10 μM” value in data set [2] (at 10 μM concentration, 72 h) is listed as “totally inhibited”.
